The source of these data is ChEMBL document CHEMBL1156523, “Cryptosporidium p30, a galactose/N-acetylgalactosamine-specific lectin, mediates infection in vitro” (J Biol Chem, 2007).

In brackets after ≈: the same amount, converted by molar mass.

Experiment [1] can be described thus: Inhibition of Cryptosporidium parvum recombinant Galactose/N-acetylgalactosamine-specific lectin binding to Caco2A cells. Format: cell-based. The settings on record: caco-2.
The subject of experiment [2] is Cryptosporidium parvum. As to the kind of experiment: Anticryptosporidial activity against Cryptosporidium parvum GCH1 assessed as inhibition of rabbit erythrocytes hemagglutinination relative to galactose. It is filed as functional.
Experiment [3] concerns Cryptosporidium hominis. The experiment is described as follows: Anticryptosporidial activity against Cryptosporidium hominis TU502 assessed as inhibition of rabbit erythrocytes hemagglutinination relative to galactose. It is filed as functional.
In experiment [4] the test system is Cryptosporidium parvum. The experiment is described as follows: Anticryptosporidial activity against Cryptosporidium parvum GCH1 assessed as inhibition of rabbit erythrocytes hemagglutinination. Format: functional.
Experiment [5] concerns Cryptosporidium hominis. As to the kind of experiment: Anticryptosporidial activity against Cryptosporidium hominis TU502 assessed as inhibition of rabbit erythrocytes hemagglutinination. Format: functional.

Regarding `O=[N+]([O-])c1ccc(O[C@@H]2O[C@H](CO)[C@H](O)[C@H](O)[C@H]2O)cc1`, the IC50 (in general, the concentration that inhibits the measured activity by half) in experiment [1] worked out at 50 mM.
With `CC(=O)N[C@H]1C(O)O[C@H](CO)[C@H](O)[C@@H]1O[C@@H]1O[C@H](CO)[C@H](O)[C@H](O)[C@H]1O` (stereo partly drawn), the IC50 in experiment [1] amounted to 3.5 mM.
On to `CC(=O)N[C@@H]1[C@@H](O)[C@H](O)[C@@H](CO)O[C@H]1O` [N-ACETYLGLUCOSAMINE], for which the Activity is on record as 0.124 in the experiment with Cryptosporidium parvum [2] and 0.062 in the experiment on Cryptosporidium hominis [3]. For the same molecule, the minimum inhibitory concentration (MIC) (as a rule, the smallest concentration in the dilution series that meets the test's criterion for growth inhibition) with Cryptosporidium parvum [4] is 50 mM (≈ 11100 µg/mL); with Cryptosporidium hominis [5], > 100 mM. In experiment [1], the IC50 is > 500 mM.
`OC[C@H]1O[C@H](O[C@H]2[C@H](O)[C@@H](O)[C@H](O)O[C@@H]2CO)[C@H](O)[C@@H](O)[C@H]1O`: the IC50 in experiment [1] was found to be 5 mM.
Regarding `OC[C@H]1OC(O)[C@@H](O)[C@@H](O)[C@@H]1O` (stereo partly drawn) [D-MANNOSE], the Activity is given as 0.124 with Cryptosporidium parvum [2] and 0.062 in the experiment on Cryptosporidium hominis [3]. Also, the MIC with Cryptosporidium parvum [4] is 50 mM (≈ 9010 µg/mL); with Cryptosporidium hominis [5] it was > 100 mM. Also, the IC50 in experiment [1] is > 500 mM.
Turning to `CC(=O)N[C@H]1C(O)O[C@H](CO)[C@H](O)[C@@H]1O` (stereo partly drawn), the Activity in the experiment on Cryptosporidium parvum [2] and in the experiment with Cryptosporidium hominis [3] was 2 in each case. Further, the MIC in the experiment on Cryptosporidium parvum [4] and with Cryptosporidium hominis [5] was 3.1 mM (≈ 686 µg/mL) in each case. Also, in experiment [1], the IC50 worked out at 6.5 mM.
Take `CC(=O)N[C@@H]1[C@@H](O[C@@H]2O[C@H](CO)[C@H](O)[C@H](O)[C@H]2O)[C@H](O)[C@@H](CO)O[C@H]1O`: the IC50 in experiment [1] worked out at 1.5 mM.
On to `OC[C@H]1O[C@@H](O)[C@H](O)[C@@H](O)[C@@H]1O` [DEXTROSE], for which the Activity in the experiment on Cryptosporidium parvum [2] and in the experiment on Cryptosporidium hominis [3] was 0.062 throughout. Besides, the minimal inhibitory concentration (MIC) with Cryptosporidium parvum [4] is 100 mM (≈ 18000 µg/mL); in the experiment on Cryptosporidium hominis [5], > 100 mM. Also, the 50% inhibitory concentration (IC50) in experiment [1] was > 500 mM.
Consider `CC(=O)N[C@@H]1[C@@H](O)[C@H](O)[C@@H](CO[C@@H]2O[C@H](CO)[C@H](O)[C@H](O)[C@H]2O)O[C@H]1O`, for which the IC50 in experiment [1] was 0.5 mM.
On to `C[C@H](O)[C@@H](O)[C@@H](O)[C@H](O)C=O` [L-FUCOSE], for which the Activity in the experiment with Cryptosporidium parvum [2] and with Cryptosporidium hominis [3] was <0.062 throughout. For the same molecule, the MIC in the experiment with Cryptosporidium parvum [4] and in the experiment with Cryptosporidium hominis [5] was > 100 mM throughout. In addition, the IC50 in experiment [1] is > 500 mM.
With `OC[C@H]1O[C@H](O[C@@H]2[C@H](O)[C@@H](O)C(O)O[C@@H]2CO)[C@H](O)[C@@H](O)[C@H]1O` (stereo partly drawn), the 50% inhibitory concentration (IC50) in experiment [1] amounted to 2.5 mM.
For the molecule `CO[C@H]1O[C@H](CO)[C@@H](O)[C@H](O)[C@H]1O`, the IC50 in experiment [1] is > 500 mM.
Turning to `O=C[C@H](O)[C@@H](O)[C@@H](O)[C@H](O)CO` [GALACTOSE], the Activity in the experiment with Cryptosporidium parvum [2] and in the experiment with Cryptosporidium hominis [3] was 1 in each case. Besides, the MIC in the experiment with Cryptosporidium parvum [4] and in the experiment on Cryptosporidium hominis [5] was 6.2 mM (≈ 1120 µg/mL) throughout. The IC50 in experiment [1] turned out to be 12.5 mM.
For the molecule `O=[N+]([O-])c1ccc(O[C@H]2O[C@H](CO)[C@H](O)[C@H](O)[C@H]2O)cc1`, the IC50 in experiment [1] came to 25 mM.
